# Results published in the supplement of paper PMC10307832.
# Experiments:
# Experiment in all cases: relative viability (nuclei count vs DMSO), 5 days (fraction); higher = more cells survive
# Idelalisib + Decitabine = compound: CC[C@H](Nc1ncnc2[nH]cnc12)c1nc2cccc(F)c2c(=O)n1-c1ccccc1 [Idelalisib] + Nc1ncn([C@H]2C[C@H](O)[C@@H](CO)O2)c(=O)n1 [Decitabine] (partner 2 µM)
# Method in brief: (§1)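 After 5 days of treatment, lung cancer cells in 1536-well plates were fixed and stained in a single step (final 0.05% Triton X-100, 1% formaldehyde, 1 ug/ml Hoechst) and their nuclei counted on 4× images. Treatment had been applied by pin tool the day after seeding as one drug alone or as a fixed anchor-drug dose with five library-drug doses (not always all listed) in √10 steps. Relative viability is the nuclei count of treated wells divided by that of vehicle wells, and values are medians of duplicate plates.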
# Idelalisib + Alpelisib = compound: CC[C@H](Nc1ncnc2[nH]cnc12)c1nc2cccc(F)c2c(=O)n1-c1ccccc1 [Idelalisib] + Cc1nc(NC(=O)N2CCC[C@H]2C(N)=O)sc1-c1ccnc(C(C)(C)C(F)(F)F)c1 [Alpelisib] (partner 2 µM)
# Method in brief: as §1
# Idelalisib + Pemetrexed = compound: CC[C@H](Nc1ncnc2[nH]cnc12)c1nc2cccc(F)c2c(=O)n1-c1ccccc1 [Idelalisib] + Nc1nc2[nH]cc(CCc3ccc(C(=O)N[C@@H](CCC(=O)O)C(=O)O)cc3)c2c(=O)[nH]1 [Pemetrexed] (partner 0.2 µM)
# Method in brief: as §1
# Idelalisib + Trametinib = compound: CC[C@H](Nc1ncnc2[nH]cnc12)c1nc2cccc(F)c2c(=O)n1-c1ccccc1 [Idelalisib] + CC(=O)Nc1cccc(-n2c(=O)n(C3CC3)c(=O)c3c(Nc4ccc(I)cc4F)n(C)c(=O)c(C)c32)c1 [Trametinib] (partner 0.02 µM)
# Method in brief: as §1
Cell Line,relative viability (Idelalisib + Decitabine; first compound 0.04 µM),relative viability (Idelalisib + Decitabine; first compound 0.1265 µM),relative viability (Idelalisib + Decitabine; first compound 0.4 µM),relative viability (Idelalisib + Decitabine; first compound 1.265 µM),relative viability (Idelalisib + Decitabine; first compound 4 µM),relative viability (Idelalisib + Alpelisib; first compound 0.04 µM),relative viability (Idelalisib + Alpelisib; first compound 0.1265 µM),relative viability (Idelalisib + Alpelisib; first compound 1.265 µM),relative viability (Idelalisib + Alpelisib; first compound 4 µM),relative viability (Idelalisib + Pemetrexed; first compound 0.04 µM),relative viability (Idelalisib + Pemetrexed; first compound 0.1265 µM),relative viability (Idelalisib + Pemetrexed; first compound 0.4 µM),relative viability (Idelalisib + Pemetrexed; first compound 1.265 µM),relative viability (Idelalisib + Pemetrexed; first compound 4 µM),relative viability (Idelalisib + Trametinib; first compound 0.04 µM),relative viability (Idelalisib + Trametinib; first compound 0.1265 µM),relative viability (Idelalisib + Trametinib; first compound 0.4 µM),relative viability (Idelalisib + Trametinib; first compound 1.265 µM),relative viability (Idelalisib + Trametinib; first compound 4 µM),relative viability (Idelalisib + Alpelisib; first compound 0.4 µM)
LCLC-97TM1,0.254,0.223,0.269,0.262,0.226,0.274,0.211,0.284,0.168,0.182,0.182,0.15,0.155,0.199,0.194,0.21,0.216,0.228,0.163,–
LCLC-103H,0.693,0.707,0.692,0.795,0.679,1,0.914,0.868,0.926,0.508,0.456,0.471,0.505,0.477,0.659,0.607,0.664,0.63,0.64,0.744
LK-2,0.357,0.239,–,0.407,0.343,1.16,1.17,1.09,1.11,0.344,0.14,–,0.324,0.404,0.87,0.651,0.503,0.588,0.704,–
LOU-NH91,0.789,0.84,0.79,0.78,0.816,0.762,0.705,0.59,0.641,0.369,0.414,0.392,0.408,0.408,0.85,0.803,0.718,0.751,0.781,0.634
LU99A,0.876,0.843,0.777,1.02,0.914,0.665,0.479,0.554,0.45,0.174,0.153,0.189,0.149,0.19,0.6,0.539,0.546,0.542,0.502,0.36
LXF-289,0.438,0.402,0.368,0.438,0.395,0.997,1.05,1.01,0.993,0.921,0.933,0.864,0.965,0.94,0.694,0.706,0.655,0.721,0.734,0.996
NCI-H23,0.331,0.339,0.309,0.313,0.329,0.737,0.635,0.727,0.515,0.64,0.619,0.422,0.53,0.509,0.462,0.38,0.281,0.399,0.312,0.357
NCI-H322M,0.712,0.69,0.613,0.664,0.746,0.826,0.764,0.62,0.716,0.648,0.634,0.639,0.628,0.623,0.58,0.57,0.479,0.505,0.537,0.632
NCI-H358,0.237,0.216,0.191,0.202,0.21,1.03,0.894,0.94,0.719,0.18,0.171,0.182,0.168,0.157,0.191,0.146,0.149,0.129,0.148,0.857
NCI-H441,0.313,0.235,–,0.267,0.187,0.987,0.455,0.839,0.611,0.247,0.233,–,0.285,0.251,0.437,0.484,–,0.615,0.396,–
NCI-H460,0.382,0.562,0.448,0.466,0.503,0.566,0.521,0.324,0.291,0.0676,0.0589,0.0612,0.0657,0.0587,0.218,0.194,0.139,0.131,0.113,0.426
NCI-H520,0.506,0.386,0.45,0.502,0.431,0.862,0.878,0.769,0.349,0.75,0.595,0.567,0.637,0.451,0.793,0.566,0.479,0.628,0.613,0.64
NCI-H596,0.994,0.962,1.06,1.15,0.887,0.597,0.397,0.467,0.364,0.52,0.441,0.49,0.536,0.487,0.756,0.82,0.782,0.878,0.592,0.483
NCI-H647,0.332,0.408,0.3,0.318,0.193,1.27,1.17,1.12,0.68,0.166,0.144,0.14,0.154,0.159,0.431,0.485,0.423,0.354,0.239,0.845
NCI-H650,0.345,0.324,0.344,0.348,0.28,1.27,1.01,1.46,0.962,0.983,0.995,0.923,0.77,0.92,1.08,0.928,0.888,1.09,0.848,0.961
NCI-H661,0.616,0.583,0.543,0.6,0.542,0.708,0.642,0.718,0.813,0.973,0.926,0.911,0.952,0.924,0.585,0.579,0.535,0.618,0.502,0.637

Cell Line,relative viability (Idelalisib + Decitabine; first compound 0.04 µM),relative viability (Idelalisib + Decitabine; first compound 0.1265 µM),relative viability (Idelalisib + Decitabine; first compound 0.4 µM),relative viability (Idelalisib + Decitabine; first compound 1.265 µM),relative viability (Idelalisib + Decitabine; first compound 4 µM),relative viability (Idelalisib + Alpelisib; first compound 0.04 µM),relative viability (Idelalisib + Alpelisib; first compound 0.1265 µM),relative viability (Idelalisib + Alpelisib; first compound 1.265 µM),relative viability (Idelalisib + Alpelisib; first compound 4 µM),relative viability (Idelalisib + Pemetrexed; first compound 0.04 µM),relative viability (Idelalisib + Pemetrexed; first compound 0.1265 µM),relative viability (Idelalisib + Pemetrexed; first compound 0.4 µM),relative viability (Idelalisib + Pemetrexed; first compound 1.265 µM),relative viability (Idelalisib + Pemetrexed; first compound 4 µM),relative viability (Idelalisib + Trametinib; first compound 0.04 µM),relative viability (Idelalisib + Trametinib; first compound 0.1265 µM),relative viability (Idelalisib + Trametinib; first compound 0.4 µM),relative viability (Idelalisib + Trametinib; first compound 1.265 µM),relative viability (Idelalisib + Trametinib; first compound 4 µM),relative viability (Idelalisib + Alpelisib; first compound 0.4 µM)
NCI-H838,0.467,0.44,0.478,0.563,0.464,0.902,1.02,0.957,0.818,0.253,0.238,0.225,0.237,0.257,0.53,0.551,0.432,0.511,0.372,0.914
NCI-H1355,0.346,0.326,0.364,0.369,0.324,0.956,0.767,0.679,0.568,1.03,1.04,0.926,1.09,1.01,0.305,0.38,0.41,0.467,0.284,0.751
NCI-H1395,0.724,0.657,0.726,0.712,0.607,1.17,0.987,1.15,0.694,0.915,0.859,0.804,0.83,0.748,1.12,1,0.965,1.07,0.844,0.974
NCI-H1437,0.55,0.59,0.62,0.635,0.55,0.947,1.07,0.84,0.748,0.34,0.315,0.311,0.317,0.268,0.561,0.547,0.461,0.545,0.354,0.892
NCI-H1651,0.717,0.374,0.611,0.578,0.651,0.921,0.864,0.964,0.845,0.634,0.355,0.537,0.522,0.59,0.825,0.85,0.815,0.844,0.814,0.907
NCI-H1666,0.801,0.587,0.743,0.761,0.701,1.03,0.909,0.888,0.747,0.821,0.835,0.844,0.847,0.996,0.806,0.931,0.815,0.803,0.831,0.89
NCI-H1734,0.522,0.461,0.497,0.518,0.496,0.695,0.7,0.592,0.443,0.417,0.455,0.399,0.363,0.364,0.696,0.697,0.546,0.69,0.556,0.574
NCI-H1755,0.724,0.637,0.729,0.7,0.803,0.611,0.9,0.784,0.735,0.431,0.415,0.38,0.434,0.438,0.764,0.773,0.745,0.674,0.732,0.827
NCI-H1792,0.505,0.599,0.514,0.558,0.472,0.315,0.662,0.577,0.581,0.707,1.09,0.45,0.823,0.631,0.487,0.522,0.271,0.56,0.267,0.665
NCI-H1793,0.404,0.398,–,0.454,0.38,0.835,0.571,0.671,0.529,0.821,0.95,–,0.81,0.627,0.431,0.467,–,0.475,0.383,0.392
NCI-H1915,0.256,0.249,0.269,0.253,0.256,1.14,1.11,1.11,1.04,0.503,0.514,0.443,0.363,0.504,0.281,0.291,0.291,0.317,0.265,1.03
NCI-H1944,0.468,0.452,0.433,0.431,0.429,0.881,0.836,0.688,0.545,0.724,0.58,0.516,0.484,0.586,0.448,0.354,0.336,0.352,0.318,0.651
NCI-H1975,0.393,0.374,0.373,0.383,0.381,0.681,0.609,0.613,0.4,0.292,0.334,0.29,0.276,0.303,0.328,0.382,0.37,0.375,0.288,0.552
NCI-H1993,0.53,0.584,0.588,0.545,0.501,0.691,0.592,0.665,0.667,0.592,0.67,0.548,0.614,0.59,0.688,0.302,0.617,0.547,0.448,0.679
NCI-H2009,0.4,0.35,0.322,0.405,0.381,1.18,1.12,1.17,1.01,0.99,0.996,1.03,1.09,0.991,0.297,0.232,0.201,0.228,0.179,1.14
NCI-H2023,0.25,0.236,0.241,0.197,0.208,0.693,0.564,0.494,0.313,0.244,0.239,0.212,0.169,0.256,0.487,0.533,0.49,0.537,0.37,0.524
